Assay results taken from patent EP0103895A2, “Novel hydroxylamine derivatives, production and use thereof” (MEIJI SEIKA KABUSHIKI KAISHA, priority 1982, dated 1984).
Values joined by “and” are separate entries in the source; they are usually repeats but may differ in a detail not shown here. Equal entries are not always repeated. Where two headings read alike, the source gives them in different places.

Key:
[1] = system: fowl roundworm (Ascaridia galli); experiment: Anthelmintic test in chickens artificially infected with fowl roundworm, single oral dose in gelatin capsule, worm bodies counted within 48 hours (Test Examples A1, B1, C1, D1); assay type: in vivo; conditions: Ascaridia galli, po, 48 h, chicken, chickens No.1-3, read-out: Anthelmintic effect after 48 hours
Procedure: Chickens infected artificially with fowl roundworm (Ascaridia galli) were employed in groups each consisting of three chickens. Fecal matter testing was conducted before administration of medicine to confirm infection with the worm. The quantity of the compound provided for testing was 10 mg and 20 mg per Kg of body weight, which was orally administered each in a gelatin capsule to the chicken. The number of worm bodies discharged within 48 hours after administration of medicine was counted, the chicken was killed after 48 hours and the number of worm bodies remaining in the enteron was counted to determine the anthelmintic percentage, wherefrom the antihelmintic effect was judged.
The same as that in Test Example Al.
The same as that in Test Example Al except that the compound provided for testing was in quantities of 30 mg and 50 mg per Kg of body weight, which were orally administered to the chickens in gelatin capsules.
The same as that in Test Example Al, except that the compounds provided for testing were used in quantities of 15 mg and 30 mg per Kg of body weight, which were orally administered each in a gelatin capsule to the chicken.

[2] = system: canine filaria; Dirofilaria immitis; experiment: Test of anthelmintic effect against canine filaria in naturally infected dogs, subcutaneous injection, microfilaria in blood and adult filaria at autopsy (Test Examples A10, B10, C10, D10); assay type: in vivo; conditions: for inhibition in vivo at 30 mg/kg: Dirofilaria immitis, sc, 240 h
Procedure: Eight dogs infected with canine filaria; Diro- filaria immitis (naturally infected dogs) were employed in groups each of two dogs.
The compounds provided for tests were Compound Nos. Al, A3 and A12. 20 mg of each was administered by subcutaneous injection per Kg of body weight to each of the two dogs as a suspension in 1% "Tween 80" solution once per day for three days. As control, 3 ml of the 1% "Tween 80" solution was subcutaneously injected into two dogs once per day for three days.
Before administration and on the 10th day after administration, 20 µl of earlobe blood of each dog was sampled and examined to determine the change in microfilaria (mf) according to the concentrated smear color method, and judgement on the effect on microfilaria (mf) was made. Judgement relating to adult filaria was made on the 10th day after the last administration by killing the dogs and carrying out autopsis.
30 mg of each compound was administered by subcutaneous injection per Kg of body weight to each of the two dogs as a suspension in 1% "Tween 80" solution once per day for three days. As control, 3 ml of the 1% "Tween 80" solution was subcutaneously injected into two dogs once per day for three days.
30 mg of each compound was administered by subcutaneous injection per Kg of body weight to each of two dogs as a suspension in 1% "Tween 80" solution once per day for three days. As control, 3 ml of the 1% "Tween 80" solution was subcutaneously injected to two dogs once per day for three days.
20 mg of each compound was administered by subcutaneous injection per kg of body weight once per day for three days to each of two dogs. These compounds were administered as a suspension in 1% "Tween 80" in the case of Compound No.Dl3 and as solutions dissolved in distilled water for injection in the case of Compounds Nos. D10 and D16, respectively. As control, 3 ml of the 1% "Tween 80" solution was subcutaneously injected into two dogs once per day for three days.

[3] = system: fowl roundworm (As. galli); experiment: Anthelmintic test in chickens artificially infected with fowl roundworm, compound added to feed, E.P.G. and worm count up to 21st day (Test Examples A2, B2, C2, D2); assay type: in vivo, Ascaridia galli; conditions: chicken
Procedure: Chickens artificially infected with fowl roundworm (As. galli) were employed in groups each of two chickens.
Fecal matter testing was conducted before initiation of the test and on the 7th, 14th and 21st day after initiation of the test. Reduction in worm egg number was examined by calculating E.P.G. (worm eggs per 1 g of fecal matter), and the number of discharged worm bodies and the number of worm bodies remaining in the enteron when the chicken was killed on 21st day were counted to determine the anthelmintic percentage, from which the anthelmintic effect was judged.

[4] = system: fowl roundworm (As. galli); experiment: Anthelmintic test in chickens infected with fowl roundworm, compound added to feed at 250 ppm and 1,000 ppm, E.P.G. and worm count on 5th day (Test Example E2); assay type: in vivo, Ascaridia galli; conditions: for E.P.G. after 5 days: worm egg number in 1 g of fecal matter; for anthelmintic effect / inhibition in vivo at 250 ppm / inhibition in vivo at 1000 ppm: 5th day; for inhibition in vivo at 250 ppm / inhibition in vivo at 1000 ppm: Ascaridia galli, feed or water, 120 h, read-out: Anthelmintic effect
Procedure: Chickens infected with fowl roundworm (As. galli) were employed in groups each of two chickens.
The compound provided for the test was dissolved in a small amount of ethyl alcohol and adsorbed on defatted rice bran and added to chicken feed at levels of 250 ppm and 1,000 ppm. As control, a feed containing no such compound was employed.
Fecal matter testing was conducted before initiation of the test and on the 5th day after initiation of the test. The reduction in worm egg count was examined by calculating the E.P.G. (worm egg number in 1 g of fecal matter). The number of discharged worm bodies and the number of worm bodies remaining in the enteron when the chicken was killed on 5th day were counted to determined the anthelmintic percentage, from which the anthelmintic effect was judged.

[5] = system: fowl roundworm (As. galli); experiment: Anthelmintic test in chickens infected with fowl roundworm, single oral dose of 40 mg per Kg, worm bodies counted within 24 hours (Test Example E1); assay type: in vivo, Ascaridia galli; conditions: 40 mg per Kg oral in gelatin capsule; for inhibition in vivo at 40 mg/kg: Ascaridia galli, 24 h, chicken No.1, read-out: Anthelmintic effect after one day
Procedure: Chickens infected with fowl roundworm (As. galli) were employed in groups each consisting of five chickens. The compound provided for testing was orally administered in a quantity of 40 mg per Kg of body weight to each chicken in a gelatin capsule. The number of worm bodies discharged within 24 hours after administration of the medicine was counted. Then the chicken was killed, and the number of worm bodies remaining in the enteron was counted to determine the anthelmintic percentage, wherefrom the anthelmintic effect was judged.

[6] = 1000 ppm in feed, chicken No. 1
[7] = 1000 ppm in feed, chicken No. 2

| Compound | E.P.G. after 5 days ([4]; 250 ppm in feed, chicken No. 1) | anthelmintic effect ([4]; 250 ppm in feed, chicken No. 2) | E.P.G. after 5 days ([4]; 250 ppm in feed, chicken No. 2) | E.P.G. after 5 days [4, 6] | anthelmintic effect [4, 7] | E.P.G. after 5 days [4, 7] | inhibition in vivo at 250 ppm ([4]; 250 ppm in feed, chicken No. 1) [%] | inhibition in vivo at 1000 ppm [4, 6] [%] | inhibition in vivo at 40 mg/kg [5] [%] | Anthelmintic effect after one day ([5]; chicken No.2) | Anthelmintic effect after one day ([5]; chicken No.3) | Anthelmintic effect after one day ([5]; chicken No.4) | Anthelmintic effect after one day ([5]; chicken No.5) | other results |
| --- | --- | --- | --- | --- | --- | --- | --- | --- | --- | --- | --- | --- | --- | --- |
| C=CCON(CC=CC)C(C)=O [Compound C9] | – | – | – | – | – | – | – | – | – | – | – | – | – | inhibition in vivo at 30 mg/kg ([1]; 30 mg/Kg oral in gelatin capsule): 100%; inhibition in vivo at 50 mg/kg ([1]; 50 mg/Kg oral in gelatin capsule): 100%; inhibition in vivo at 30 mg/kg ([2]; dog, 30 mg/Kg x 3, subcutaneous injection, read-out: Effect on adult filaria: Percent of worms killed): 70%; inhibition in vivo at 30 mg/kg ([2]; dogs, administration of 30 mg/Kg repeated three times, given as about 50% or more, read-out: anthelmintic effect against adult filaria): ≥ 50%; Number of microfilaria/20 µl On 10th day after the last administration ([2]; dog, 30 mg/Kg x 3, subcutaneous injection, suspension in 1% Tween 80): 0 /20 µl; Effect on adult filaria: Number of worms killed/ Total parasite ([2]; dog, 30 mg/Kg x 3, subcutaneous injection, 30 mg/kg): 14/20 and 19/27; anthelmintic effect against microfilaria (mf) ([2]; dogs, administration of 30 mg/Kg repeated three times): marked anthelmintic effect; inhibition in vivo at 25 ppm ([3]; Ascaridia galli, feed or water, 504 h, 25 ppm in feed, read-out: Anthelmintic effect): 100%; inhibition in vivo at 50 ppm ([3]; Ascaridia galli, feed or water, 504 h, 50 ppm in feed, read-out: Anthelmintic effect): 100%; Change of E.P.G. 21st day ([3]; 25 ppm in feed): 0; Change of E.P.G. 21st day ([3]; 50 ppm in feed): 0 |
| C#CCON(CC#C)C(C)=O [Compound E1, N,O-dipropargyl-N-acetylhydroxylamine] | 0 | +++ (100%) | 0 | 0 | +++ (100%) | 0 | 100 | 100 | 100 | +++ (100%) | +++ (100%) | +++ (100%) | +++ (100%) | – |
| C#CCON(CC#C)C(=O)CC [Compound E2, N,O-dipropargyl-N-propionylhydroxylamine] | 0 | +++ (100%) | 0 | 0 | +++ (100%) | 0 | 100 | 100 | 100 | +++ (100%) | +++ (100%) | +++ (100%) | +++ (100%) | – |
| C#CCON(CC#C)C(=O)CCC [Compound E3, N,O-dipropargyl-N-butylylhydroxylamine] | 0 | +++ (100%) | 0 | 0 | +++ (100%) | 0 | 100 | 100 | 100 | +++ (100%) | +++ (100%) | +++ (100%) | +++ (100%) | – |
